Results: publication PMC8836295, “Essential role of pyrophosphate homeostasis mediated by the pyrophosphate-dependent phosphofructokinase in Toxoplasma gondii” (PLoS Pathogens, 2022)

Target: T1, PFK2-N (Toxoplasma gondii, UniProt A0A125YKV6)
T1 construct: gene PFKII; N-terminal phosphofructokinase domain, residues 1-595; recombinant, E. coli Transetta (DE3), plasmid pESUMO-PFK2N (His-SUMO vector), Ni2+ column
T1 sequence (A0A125YKV6 1-595): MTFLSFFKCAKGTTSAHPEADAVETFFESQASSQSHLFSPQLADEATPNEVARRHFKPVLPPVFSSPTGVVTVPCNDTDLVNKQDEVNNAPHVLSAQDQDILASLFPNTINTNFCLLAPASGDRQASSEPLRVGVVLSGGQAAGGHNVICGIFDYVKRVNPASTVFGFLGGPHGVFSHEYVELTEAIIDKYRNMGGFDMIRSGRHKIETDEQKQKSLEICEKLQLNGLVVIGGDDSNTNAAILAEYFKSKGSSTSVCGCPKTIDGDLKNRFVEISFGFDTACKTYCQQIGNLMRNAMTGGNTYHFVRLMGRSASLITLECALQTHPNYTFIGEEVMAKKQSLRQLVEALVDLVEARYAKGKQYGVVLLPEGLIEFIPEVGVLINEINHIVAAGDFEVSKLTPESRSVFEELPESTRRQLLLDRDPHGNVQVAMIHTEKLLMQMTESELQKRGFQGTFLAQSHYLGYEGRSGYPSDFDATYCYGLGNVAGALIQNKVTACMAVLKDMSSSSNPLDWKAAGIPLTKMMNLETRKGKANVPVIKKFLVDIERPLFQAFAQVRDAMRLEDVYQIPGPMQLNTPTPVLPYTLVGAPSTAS
Assay: NADH-coupled OD340 assay (PFP activity kit)
Format: biochemical
Details: co-substrate F6P 4 mM

Compound: O=P(O)(O)OP(=O)(O)O [PPi]
- NADH-coupled OD340 assay (PFP activity kit): individually purified and assayed for the PPi dependent PFK activity
